From publication PMC2819003 (Angewandte Chemie (International ed. in English), 2010)

Target: T1, DPPS; decaprenyl diphosphate synthase (Homo sapiens, UniProt Q5T2R2)
T1 sequence (Q5T2R2 1-415): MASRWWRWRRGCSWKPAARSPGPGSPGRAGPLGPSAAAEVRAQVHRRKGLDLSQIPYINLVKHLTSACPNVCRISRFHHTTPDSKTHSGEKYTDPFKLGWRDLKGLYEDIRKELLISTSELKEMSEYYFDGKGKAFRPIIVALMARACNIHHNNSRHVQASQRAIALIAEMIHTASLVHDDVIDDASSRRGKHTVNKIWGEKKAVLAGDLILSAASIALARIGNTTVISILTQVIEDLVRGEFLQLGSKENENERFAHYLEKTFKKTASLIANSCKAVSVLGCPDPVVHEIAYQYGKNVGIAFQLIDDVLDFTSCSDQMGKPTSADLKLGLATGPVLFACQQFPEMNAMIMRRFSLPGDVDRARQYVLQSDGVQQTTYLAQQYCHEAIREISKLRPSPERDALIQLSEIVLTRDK
T1 sequence (Q86YH6 1-399 partner): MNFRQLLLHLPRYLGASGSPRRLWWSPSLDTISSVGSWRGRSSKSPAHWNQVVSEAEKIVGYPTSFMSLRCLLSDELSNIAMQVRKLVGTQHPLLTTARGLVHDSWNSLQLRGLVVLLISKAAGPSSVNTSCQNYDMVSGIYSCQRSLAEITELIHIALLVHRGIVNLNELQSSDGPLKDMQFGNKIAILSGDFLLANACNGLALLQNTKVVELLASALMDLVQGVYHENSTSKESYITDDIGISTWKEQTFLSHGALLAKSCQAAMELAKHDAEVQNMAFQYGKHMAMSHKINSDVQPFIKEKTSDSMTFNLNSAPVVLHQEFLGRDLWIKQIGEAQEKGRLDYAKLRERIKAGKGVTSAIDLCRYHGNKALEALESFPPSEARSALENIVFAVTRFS
Assay: DPPS inhibition assay
Format: biochemical

- IC50: 5.5 µM
Compound: O=P(O)(O)C(O)(Cn1ccnc1)P(=O)(O)O [zoledronate]
